Reference: article PMC3216401 (Antiviral research, 2011)
pIC50: −log10 of the molar value. “And” between values parts separate entries of the source, which are not always exact repeats. Identical values can stand only once. Like-named read-outs stand apart in the source and are kept apart here.

Columns and labels:
[1] = system: influenza A/CA/07/2009 (H1N1); test: microbe, parasite or virus in culture; type: cell-based; conditions: H1N1, MDCK, read-out: IC90, VYR Assay
[2] = system: Influenza A/Sydney/05/97 (H3N2); test: microbe, parasite or virus in culture; type: cell-based; conditions: H3N2, MDCK, read-out: IC90, VYR Assay
[3] = system: A/Gull/PA/4175/83 (H5N1); test: microbe, parasite or virus in culture; type: cell-based; conditions: Influenza A virus, H5N1, MDCK, read-out: IC90, VYR Assay
[4] = system: A/Duck/MN/1525/81 (H5N1); test: microbe, parasite or virus in culture; type: cell-based; conditions: Influenza A virus, H5N1, MDCK, read-out: IC90, VYR Assay
[5] = system: B/Malaysia/2506/2004; test: microbe, parasite or virus in culture; type: cell-based; conditions: Influenza B virus, MDCK, read-out: IC90, VYR Assay
[6] = system: influenza viruses; test: microbe, parasite or virus in culture; type: cell-based, influenza A and B viruses; conditions: Influenza A virus
[7] = system: influenza A/CA/07/2009 (H1N1)
[8] = system: influenza A/CA/07/2009 (H1N1); remark: listed apart in the source
[9] = system: A/Brisbane/10/2007 (H3N2)
[10] = system: A/Brisbane/10/2007 (H3N2); remark: listed apart in the source
[11] = system: A/Hong Kong/213/2003H (A/Hong Kong/213/2003 × Ann Arbor/6/60 hybrid)
[12] = system: A/Vietnam/1203/04H (A/Vietnam/1203/04 × Ann Arbor/6/60 hybrid)
[13] = system: A/Gull/PA/4175/83 (H5N1)
[14] = system: A/Gull/PA/4175/83 (H5N1); remark: listed apart in the source
[15] = system: A/Duck/MN/1525/81 (H5N1)
[16] = system: B/Malaysia/2506/2004
[17] = system: B/Florida/4/2006
[18] = system: influenza A/Vietnam/1203/2004 H5N1 virus; conditions: in vivo
[19] = system: influenza A/CA/07/2009 (H1N1); test: microbe, parasite or virus in culture; conditions: H1N1, MDCK, read-out: IC50, Visual Assay
[20] = system: influenza A/CA/07/2009 (H1N1); test: microbe, parasite or virus in culture; conditions: H1N1, MDCK, read-out: IC50, Neutral Red Uptake Assay
[21] = system: Influenza A/Sydney/05/97 (H3N2); test: microbe, parasite or virus in culture; conditions: H3N2, MDCK, read-out: IC50, Visual Assay
[22] = system: Influenza A/Sydney/05/97 (H3N2); test: microbe, parasite or virus in culture; conditions: H3N2, MDCK, read-out: IC50, Neutral Red Uptake Assay
[23] = system: A/Brisbane/10/2007 (H3N2); test: microbe, parasite or virus in culture; conditions: Influenza A virus, H3N2, MDCK, read-out: IC50, Visual Assay
[24] = system: A/Brisbane/10/2007 (H3N2); test: microbe, parasite or virus in culture; conditions: Influenza A virus, H3N2, MDCK, read-out: IC50, Neutral Red Uptake Assay
[25] = system: A/Hong Kong/213/2003H (A/Hong Kong/213/2003 × Ann Arbor/6/60 hybrid); test: microbe, parasite or virus in culture; conditions: Influenza A virus, H1N1|H5N1, MDCK, read-out: IC50, Neutral Red Uptake Assay
[26] = system: A/Vietnam/1203/04H (A/Vietnam/1203/04 × Ann Arbor/6/60 hybrid); test: microbe, parasite or virus in culture; conditions: Influenza A virus, H1N1|H5N1, MDCK, read-out: IC50, Visual Assay
[27] = system: A/Vietnam/1203/04H (A/Vietnam/1203/04 × Ann Arbor/6/60 hybrid); test: microbe, parasite or virus in culture; conditions: Influenza A virus, H1N1|H5N1, MDCK, read-out: IC50, Neutral Red Uptake Assay
[28] = system: A/Gull/PA/4175/83 (H5N1); test: microbe, parasite or virus in culture; conditions: Influenza A virus, H5N1, MDCK, read-out: IC50, Neutral Red Uptake Assay
[29] = system: A/Duck/MN/1525/81 (H5N1); test: microbe, parasite or virus in culture; conditions: Influenza A virus, H5N1, MDCK, read-out: IC50, Visual Assay
[30] = system: A/Duck/MN/1525/81 (H5N1); test: microbe, parasite or virus in culture; conditions: Influenza A virus, H5N1, MDCK, read-out: IC50, Neutral Red Uptake Assay
[31] = system: B/Malaysia/2506/2004; test: microbe, parasite or virus in culture; conditions: Influenza B virus, MDCK, read-out: IC50, Visual Assay
[32] = system: B/Malaysia/2506/2004; test: microbe, parasite or virus in culture; conditions: Influenza B virus, MDCK, read-out: IC50, Neutral Red Uptake Assay
[33] = system: B/Florida/4/2006; test: microbe, parasite or virus in culture; conditions: Influenza B virus, MDCK, read-out: IC50, Visual Assay
[34] = system: B/Florida/4/2006; test: microbe, parasite or virus in culture; conditions: Influenza B virus, MDCK, read-out: IC50, Neutral Red Uptake Assay
[35] = MDCK, read-out: IC90 values, range over viruses of Table 3

Nc1ccn([C@@H]2O[C@H](CO)[C@@H](O)C2(F)F)c(=O)n1 [2’-deoxy-2’, 2’-difluorocytidine, reference compound] was tested, and the IC90 [1] was 130 nM, the IC90 [2] was 1600 nM and the IC90 [3] was 130 nM. For the same compound, the IC90 [4] was 250 nM, the IC90 [5] was 110 nM and the IC90 [6, 35] was 30 to 2100 nM. The “SI (CC50/IC50), Visual Assay” value [7] was 11.7, the “SI (CC50/IC50), Neutral Red Uptake Assay” value [8] was 6.9 and the “SI (CC50/IC50), Visual Assay” value [9] was 43. For the same compound, the “SI (CC50/IC50), Neutral Red Uptake Assay” value [10] was 8.1, the “SI (CC50/IC50), Neutral Red Uptake Assay” value [11] was greater than 1538 and the “SI (CC50/IC50), Neutral Red Uptake Assay” value [12] was greater than 500. The “SI (CC50/IC50), Visual Assay” value [13] was greater than 480, the “SI (CC50/IC50), Neutral Red Uptake Assay” value [14] was 370 and the “SI (CC50/IC50), Visual Assay” value [15] was greater than 1700. The “SI (CC50/IC50), Neutral Red Uptake Assay” value [16] was greater than 1500, the “SI (CC50/IC50), Visual Assay” value [17] was greater than 1400 and the “Inhibition in the H5N1 mouse model” value [18] was “not inhibitory”. For the same compound, the “Toxicity in the H5N1 mouse model” value [18] was “very toxic”, the “Protection against lethal challenge” value ([18]; mouse) was “not significantly effective” and the pIC50 [19] was 6.74. The pIC50 [20] was 6.80, the pIC50 [21] was 6.74 and the pIC50 [22] was 5.92. The pIC50 [23] was 6.89, the pIC50 [24] was 6.80 and the pIC50 [25] was 7.19. For the same compound, the pIC50 [26] was greater than 6.49, the pIC50 [27] was greater than 6.49 and the pIC50 [28] was 6.57. The pIC50 [29] was greater than 6.49, the pIC50 [30] was greater than 6.49 and the pIC50 [31] was greater than 7.49. It also gave a pIC50 [32] of 7.17, a pIC50 [33] greater than 6.49 and a pIC50 [34] greater than 6.49.
In the case of Nc1ccn([C@@H]2O[C@H](CO)[C@@H](O)[C@H]2F)c(=O)n1 [2’-deoxy-2’-fluorocytidine, 2'-deoxy-2'-fluorocytidine], the IC90 [1] was 4600 nM, the IC90 [2] was 6700 nM and the IC90 [3] was 6100 nM. For the same compound, the IC90 [4] was 5900 nM, the IC90 [5] was 7300 nM and the IC90 ([6]; H1N1|H3N2, MDCK, read-out: IC90 values, range for the H3N2 and H1N1 viruses tested) was 4600 to 6800 nM. The IC90 ([6]; H1N1|H5N1, MDCK, read-out: IC90 values, range for the hybrid H1N1 viruses expressing the H5N1 HA and NA proteins) was 2900 to 5100 nM, the IC90 [6, 35] was 1200 to 7300 nM and the “SI (CC50/IC50), Visual Assay” value [7] was greater than 31. For the same compound, the “SI (CC50/IC50), Neutral Red Uptake Assay” value [8] was greater than 24, the “SI (CC50/IC50), Visual Assay” value [9] was greater than 100 and the “SI (CC50/IC50), Neutral Red Uptake Assay” value [10] was greater than 7.1. For the same compound, the “SI (CC50/IC50), Neutral Red Uptake Assay” value [11] was greater than 14, the “SI (CC50/IC50), Neutral Red Uptake Assay” value [12] was greater than 29 and the “SI (CC50/IC50), Visual Assay” value [13] was greater than 110. For the same compound, the “SI (CC50/IC50), Neutral Red Uptake Assay” value [14] was greater than 91, the “SI (CC50/IC50), Visual Assay” value [15] was greater than 400 and the “SI (CC50/IC50), Neutral Red Uptake Assay” value [16] was greater than 24. The “SI (CC50/IC50), Visual Assay” value [17] was greater than 100, the “Maximum tolerated effective dose” value ([18]; female, BALB/c, mouse, ip) was 60 mg/kg/day and the “Lung Score ± SD” value ([18]; mouse) was 0.4 ± 0.25 and 0.2 ± 0.27. For the same compound, the “Mice protected from lethal effects” value ([18]; mouse) was 60%, the “Protection from death, i.p.” value ([18]; mouse) was “partially, but significantly protected from death” and the “Protection from mortality, per os” value ([18]; mouse) was “not protected from mortality”. The “Virus Lung Titers ± SD” value ([18]; mouse) was 3.60 ± 1.303 Log10/g and 4.01 ± 0.713 Log10/g, the pIC50 [19] was 5.49 and the pIC50 [20] was 5.39. It also gave a pIC50 [21] of 6.23, a pIC50 [22] of 5.60 and a pIC50 [23] of 6.00. The pIC50 [24] was 4.85, the pIC50 [25] was 5.14 and the pIC50 [26] was 5.68. It also gave a pIC50 [27] of 5.47, a pIC50 [28] of 5.96 and a pIC50 [29] of 6.60. The pIC50 [30] was 6.68, the pIC50 [31] was 5.72 and the pIC50 [32] was 5.39. It also gave a pIC50 [33] of 6.00 and a pIC50 [34] of 5.85.
